We go through 14 molecules from patent US20060281771A1, “SYNERGISTIC MODULATION OF FLT3 KINASE USING AMINOQUINOLINE AND AMINOQUINAZOLINE KINASE MODULATORS” (priority 2005, published 2006).

In the assay the test system is MV4-11 cells. As to the kind of experiment: Inhibition of MV4-11 cell proliferation (CellTiterGlo, 72 h). Conditions: Homo sapiens; 72 h growth inhibition. It is filed as cell-based. As to the method:
To assess the cellular potency of the FLT3 inhibitors of Formula I′, FLT3 specific growth inhibition was measured in the leukemic cell line MV4-11 (ATCC Number: CRL-9591). […] MV4-11 cells cannot grow and survive without active FLT3ITD.
To measure proliferation inhibition by test compounds, the luciferase based CellTiterGlo reagent (Promega), which quantifies total cell number based on total cellular ATP concentration, was used. Cells are plated at 10,000 cells per well in 100 ul of in RPMI media containing penn/strep, 10% FBS and 1 ng/ml GM-CSF or 1 ng/ml IL-3 for MV4-11 and Baf3 cells respectively.
Compound dilutions or 0.1% DMSO (vehicle control) are added to cells and the cells are allowed to grow for 72 hours at standard cell growth conditions (37° C., 5% CO2). For activity measurements in MV4-11 cells grown in 50% plasma, cells were plated at 10,000 cells per well in a 1:1 mixture of growth media and human plasma (final volume of 100 μL). To measure total cell growth an equal volume of CellTiterGlo reagent was added to each well, according to the manufacturer's instructions, and luminescence was quantified. Total cell growth was quantified as the difference in luminescent counts (relative light units, RLU) of cell number at Day 0 compared to total cell number at Day 3 (72 hours of growth and/or compound treatment). One hundred percent inhibition of growth is defined as an RLU equivalent to the Day 0 reading. Zero percent inhibition was defined as the RLU signal for the DMSO vehicle control at Day 3 of growth. All data points are an average of triplicate samples. […] Inhibition and IC50 data analysis was done with GraphPad Prism using a non-linear regression fit with a multiparamater, sigmoidal dose-response (variable slope) equation.
MV4-11 cells express the FLT3 internal tandem duplication mutation, and thus are entirely dependent upon FLT3 activity for growth. […] In contrast, the Baf3 cell proliferation is driven by the cytokine IL-3 and thus are used as a non-specific toxicity control for test compounds.

With `COc1cc2ncnc(N3CCC(NC(=O)Nc4ccc(Cl)cc4)CC3)c2cc1OC` [Compound 61, 1-(4-Chloro-phenyl)-3-[1-(6,7-dimethoxy-quinazolin-4-yl)-piperidin-4-yl]-urea], the IC50 was 9400 nM.

`COc1cc2ncnc(N3CCC(NC(=O)Nc4ccc(OC5CCCC5)nc4)C3)c2cc1OC` (centres unmarked) [Compound 45, 1-(6-Cyclopentyloxy-pyridin-3-yl)-3-[1-(6,7-dimethoxy-quinazolin-4-yl)-pyrrolidin-3-yl]-urea] displayed a 50% inhibitory concentration (IC50) of 1100 nM. For `COc1cc2ncnc(N3CCC(NC(=O)Nc4ccc(Cl)cc4)C3)c2cc1OC` (centres unmarked) [Compound 48, 1-(4-Chloro-phenyl)-3-[1-(6,7-dimethoxy-quinazolin-4-yl)-pyrrolidin-3-yl]-urea], half-maximal inhibition (IC50) was put at 2500 nM.

In turn, `COc1cc2ncnc(N3CCC(NC(=O)Nc4ccc(Oc5ccccc5)cc4)C3)c2cc1OC` (centres unmarked) [Compound 51, 1-[1-(6,7-Dimethoxy-quinazolin-4-yl)-pyrrolidin-3-yl]-3-(4-phenoxy-phenyl)-urea] returned an IC50 of 1200 nM.

`COc1cc2ncnc(N3CCC(OC(=O)Nc4ccc(OC5CCCC5)cc4)C3)c2cc1OC` (centres unmarked) [Compound 54, (4-Cyclopentyloxy-phenyl)-carbamic acid 1-(6,7-dimethoxy-quinazolin-4-yl)-pyrrolidin-3-yl ester] showed an IC50 of 1500 nM. The molecule `COc1cc2ncnc(N3CCC(NC(=O)Nc4ccc(OC5CCCC5)cc4)C3)c2cc1OC` (centres unmarked) [Compound 53, 1-(4-Cyclopentyloxy-phenyl)-3-[1-(6,7-dimethoxy-quinazolin-4-yl)-pyrrolidin-3-yl]-urea] registered an IC50 of 1500 nM. `COc1cc2ncnc(N3CCC(COC(=O)Nc4ccc(OC5CCCC5)cc4)CC3)c2cc1OC` [Compound 56, (4-Cyclopentyloxy-phenyl)-carbamic acid 1-(6,7-dimethoxy-quinazolin-4-yl)-piperidin-4-ylmethyl ester] registered an IC50 of 740 nM. `COc1cc2ncnc(N3CCC(NC(=O)Nc4ccc(OC5CCC5)nc4)C3)c2cc1OC` (centres unmarked) [Compound 44, 1-(6-Cyclobutoxy-pyridin-3-yl)-3-[1-(6,7-dimethoxy-quinazolin-4-yl)-pyrrolidin-3-yl]-urea] registered an IC50 of 1000 nM.

Turning to `CC(C)Oc1ccc(NC(=O)OC2CCN(c3ccnc4ccccc34)CC2)cc1` [Compound 41], the IC50 was above 10000 nM. As for `COc1cc2ncnc(N3CCC(NC(=O)Nc4ccc(N5CCOCC5)cc4)C3)c2cc1OC` (centres unmarked) [Compound 43, 1-[1-(6,7-Dimethoxy-quinazolin-4-yl)-pyrrolidin-3-yl]-3-(4-morpholin-4-yl-phenyl)-urea], the figure is above 5000 nM. Turning to `COc1cc2ncc(C#N)c(N3CCC(OC(=O)Nc4ccc(C(C)C)cc4)CC3)c2cc1OC` [Compound 42, (4-Isopropyl-phenyl)-carbamic acid 1-(3-cyano-6,7-dimethoxy-quinolin-4-yl)-piperidin-4-yl ester], the midpoint of inhibition, the IC50, lay at 2100 nM. As for `COc1cc2ncnc(N3CCC(NC(=O)Nc4ccc(N5CCCCC5)cc4)C3)c2cc1OC` (centres unmarked) [Compound 47, 1-[1-(6,7-Dimethoxy-quinazolin-4-yl)-pyrrolidin-3-yl]-3-(4-piperidin-1-yl-phenyl)-urea], the figure is 3900 nM.

Molecule `COc1cc2ncnc(N3CCC(NC(=O)Nc4ccc(C5CCCCC5)cc4)C3)c2cc1OC` (centres unmarked) [Compound 50, 1-(4-Cyclohexyl-phenyl)-3-[1-(6,7-dimethoxy-quinazolin-4-yl)-pyrrolidin-3-yl]-urea] yielded an IC50 of 1700 nM.

For `COc1cc2ncnc(N3CCC(NC(=O)Nc4ccc(N5CCCC5)nc4)C3)c2cc1OC` (centres unmarked) [Compound 46, 1-[1-(6,7-Dimethoxy-quinazolin-4-yl)-pyrrolidin-3-yl]-3-(6-pyrrolidin-1-yl-pyridin-3-yl)-urea], inhibition was half-maximal at 3500 nM (IC50).
